Legend:
Test in all cases: drug sensitivity score (DSS) (DSS (unitless, 0-50 scale)); higher = more sensitive (stronger viability inhibition); extreme values may be limits of the assay
Settings in all cases: 72 h; culture: 2D
SK-MEL-28 = test system: SK-MEL-28
In short: (§1)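 Melanoma cell lines and patient-derived melanoma cultures at 1000–1500 cells per well were exposed in 2D, in 384-well plates, to a 527-compound oncology library at five concentrations spanning a 10,000-fold range for 72 h at 37 °C. CellTiter-Glo luminescence then measured viability. From dose-response curves fitted in the in-house Breeze software, a drug sensitivity score, a modified area-under-curve measure, was obtained.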

FM-MEL-3 = test system: FM-MEL-3
In short: as §1

SK-MEL-2 = test system: SK-MEL-2
In short: as §1

WM852 = test system: WM852
In short: as §1

FM-MEL-2 = test system: FM-MEL-2
In short: as §1

FM-MEL-6 = test system: FM-MEL-6
In short: as §1

Bowes = test system: Bowes
In short: as §1

WM165 = test system: WM165
In short: as §1

`CC(C)C[C@H](NC(=O)[C@@H](COC(C)(C)C)NC(=O)[C@H](Cc1ccc(O)cc1)NC(=O)[C@H](CO)NC(=O)[C@H](Cc1c[nH]c2ccccc12)NC(=O)[C@H](Cc1cnc[nH]1)NC(=O)[C@@H]1CCC(=O)N1)C(=O)N[C@@H](CCCNC(=N)N)C(=O)N1CCC[C@H]1C(=O)NNC(N)=O` [Goserelin] gave a drug sensitivity score (SK-MEL-28) of 0, a drug sensitivity score (FM-MEL-3) of 0 and a drug sensitivity score (SK-MEL-2) of 0. For the same compound, the drug sensitivity score (WM852) was 0, the drug sensitivity score (FM-MEL-2) was 0 and the drug sensitivity score (FM-MEL-6) was 0. For the same compound, the drug sensitivity score (Bowes) was 0 and the drug sensitivity score (WM165) was 0.

Compound `Cc1ccc(NS(=O)(=O)c2cccc(C#N)c2)c2[nH]cc(C#N)c12` [E7820] has a drug sensitivity score (SK-MEL-28) of 0, a drug sensitivity score (FM-MEL-3) of 5.5 and a drug sensitivity score (SK-MEL-2) of 0. The drug sensitivity score (WM852) was 0, the drug sensitivity score (FM-MEL-2) was 1.9 and the drug sensitivity score (FM-MEL-6) was 0.7. It also gave a drug sensitivity score (Bowes) of 0 and a drug sensitivity score (WM165) of 5.3.

With `COc1cc(C)c(/C=C/C(C)=C/C=C/C(C)=C/C(=O)O)c(C)c1C` [Acitretin] the drug sensitivity score (SK-MEL-28) was 0, the drug sensitivity score (FM-MEL-3) was 1.3 and the drug sensitivity score (SK-MEL-2) was 0. It also gave a drug sensitivity score (WM852) of 0, a drug sensitivity score (FM-MEL-2) of 0 and a drug sensitivity score (FM-MEL-6) of 1.6. For the same compound, the drug sensitivity score (Bowes) was 2.6 and the drug sensitivity score (WM165) was 0.

Compound `CN1CCC(CNc2ccc3ncc(-c4cccc(OC(F)(F)F)c4)n3n2)CC1` [SGI-1776] has a drug sensitivity score (SK-MEL-28) of 6.1, a drug sensitivity score (FM-MEL-3) of 5.1 and a drug sensitivity score (SK-MEL-2) of 4.8. The drug sensitivity score (WM852) was 6.1, the drug sensitivity score (FM-MEL-2) was 5.9 and the drug sensitivity score (FM-MEL-6) was 5.3. The drug sensitivity score (Bowes) was 5.5 and the drug sensitivity score (WM165) was 6.1.

For `CN1CCN(c2cc(C(=O)Nc3ccc4c(c3)-c3c(c(C(N)=O)nn3-c3ccc(F)cc3)CC4)c(Cl)cn2)CC1` [PHA 408], the drug sensitivity score (SK-MEL-28) was 0.1, the drug sensitivity score (FM-MEL-3) was 1.1 and the drug sensitivity score (SK-MEL-2) was 4.2. The drug sensitivity score (WM852) was 5.3, the drug sensitivity score (FM-MEL-2) was 5.7 and the drug sensitivity score (FM-MEL-6) was 5.2. The drug sensitivity score (Bowes) was 0.5 and the drug sensitivity score (WM165) was 3.4.

Compound `Nc1ncnc2c1c(COc1cccc(Cl)c1)nn2C1CCOCC1` has a drug sensitivity score (SK-MEL-28) of 0, a drug sensitivity score (FM-MEL-3) of 0 and a drug sensitivity score (SK-MEL-2) of 0. For the same compound, the drug sensitivity score (WM852) was 0.8, the drug sensitivity score (FM-MEL-2) was 0.2 and the drug sensitivity score (FM-MEL-6) was 0.7. For the same compound, the drug sensitivity score (Bowes) was 0 and the drug sensitivity score (WM165) was 0.

Compound `COc1cc(Nc2ncc(F)c(Nc3ccc4c(n3)NC(=O)C(C)(C)O4)n2)cc(OC)c1OC` [Tamatinib] has a drug sensitivity score (SK-MEL-28) of 0, a drug sensitivity score (FM-MEL-3) of 2.7 and a drug sensitivity score (SK-MEL-2) of 0. It also gave a drug sensitivity score (WM852) of 0, a drug sensitivity score (FM-MEL-2) of 5.5 and a drug sensitivity score (FM-MEL-6) of 0. For the same compound, the drug sensitivity score (Bowes) was 1.3 and the drug sensitivity score (WM165) was 0.9.

`C[C@@H](Oc1cc(-c2cnn(C3CCNCC3)c2)cnc1N)c1c(Cl)ccc(F)c1Cl` [Crizotinib] showed a drug sensitivity score (SK-MEL-28) of 0, a drug sensitivity score (FM-MEL-3) of 0 and a drug sensitivity score (SK-MEL-2) of 0. The drug sensitivity score (WM852) was 0, the drug sensitivity score (FM-MEL-2) was 0 and the drug sensitivity score (FM-MEL-6) was 0. For the same compound, the drug sensitivity score (Bowes) was 0 and the drug sensitivity score (WM165) was 0.

Work on `CCS(=O)(=O)Nc1ccc(Oc2ccc(F)cc2F)c(-c2cn(C)c(=O)c3[nH]ccc23)c1` [Mivebresib] yielded a drug sensitivity score (SK-MEL-28) of 12.2, a drug sensitivity score (FM-MEL-3) of 16.2 and a drug sensitivity score (SK-MEL-2) of 9. It also gave a drug sensitivity score (WM852) of 0.4, a drug sensitivity score (FM-MEL-2) of 16.3 and a drug sensitivity score (FM-MEL-6) of 15.8. It also gave a drug sensitivity score (Bowes) of 17 and a drug sensitivity score (WM165) of 24.2.

In the case of `COc1cccc2c1c(O)c(C(=O)N(C)c1ccc(C(F)(F)F)cc1)c(=O)n2C` [Tasquinimod], the drug sensitivity score (SK-MEL-28) is reported as 0, the drug sensitivity score (FM-MEL-3) is reported as 0.2 and the drug sensitivity score (SK-MEL-2) is reported as 0. For the same compound, the drug sensitivity score (WM852) was 0, the drug sensitivity score (FM-MEL-2) was 0.9 and the drug sensitivity score (FM-MEL-6) was 0.4. For the same compound, the drug sensitivity score (Bowes) was 0 and the drug sensitivity score (WM165) was 0.

`O=c1[nH]c(=O)n([C@H]2C[C@H](O)[C@@H](CO)O2)cc1F` [Floxuridine] was tested, and the drug sensitivity score (SK-MEL-28) was 8, the drug sensitivity score (FM-MEL-3) was 0 and the drug sensitivity score (SK-MEL-2) was 0. For the same compound, the drug sensitivity score (WM852) was 4.9, the drug sensitivity score (FM-MEL-2) was 0.4 and the drug sensitivity score (FM-MEL-6) was 1.2. The drug sensitivity score (Bowes) was 15.7 and the drug sensitivity score (WM165) was 18.4.

`C[C@]1(O)C[C@@H](c2nc(-c3ccc4ccc(-c5ccccc5)nc4c3)c3c(N)nccn32)C1` [Linsitinib] gave a drug sensitivity score (SK-MEL-28) of 0, a drug sensitivity score (FM-MEL-3) of 4.8 and a drug sensitivity score (SK-MEL-2) of 0. For the same compound, the drug sensitivity score (WM852) was 1, the drug sensitivity score (FM-MEL-2) was 3.6 and the drug sensitivity score (FM-MEL-6) was 0.9. For the same compound, the drug sensitivity score (Bowes) was 0 and the drug sensitivity score (WM165) was 1.3.

In the case of `Cn1cc(C2=Nc3cc(NC(=O)C(N)C4CCCCC4)cc4c3C2=CNNC4=O)cn1` (configuration not stated), the drug sensitivity score (SK-MEL-28) is reported as 2.3, the drug sensitivity score (FM-MEL-3) is reported as 9.7 and the drug sensitivity score (SK-MEL-2) is reported as 11. For the same compound, the drug sensitivity score (WM852) was 12.5, the drug sensitivity score (FM-MEL-2) was 3.1 and the drug sensitivity score (FM-MEL-6) was 11.1. The drug sensitivity score (Bowes) was 15.5 and the drug sensitivity score (WM165) was 13.5.

With `CC1CCC(n2c3cnccc3c3cnc(Nc4ccc5c(n4)CCN(C(=O)CO)C5)nc32)CC1` (configuration not stated) [AMG-925] the drug sensitivity score (SK-MEL-28) was 0, the drug sensitivity score (FM-MEL-3) was 0 and the drug sensitivity score (SK-MEL-2) was 0. For the same compound, the drug sensitivity score (WM852) was 1.8, the drug sensitivity score (FM-MEL-2) was 0.7 and the drug sensitivity score (FM-MEL-6) was 0.7. It also gave a drug sensitivity score (Bowes) of 0 and a drug sensitivity score (WM165) of 0.

With `Nc1nc(NC2CC2)cc(-c2cccc(Cl)c2Cl)n1` [TH588] the drug sensitivity score (SK-MEL-28) was 0, the drug sensitivity score (FM-MEL-3) was 2.2 and the drug sensitivity score (SK-MEL-2) was 0. The drug sensitivity score (WM852) was 4.3, the drug sensitivity score (FM-MEL-2) was 0 and the drug sensitivity score (FM-MEL-6) was 0. It also gave a drug sensitivity score (Bowes) of 0 and a drug sensitivity score (WM165) of 0.9.

With `CO[C@@H](C(=O)N1Cc2[nH]nc(NC(=O)c3ccc(N4CCN(C)CC4)cc3)c2C1)c1ccccc1` [Danusertib] the drug sensitivity score (SK-MEL-28) was 5.1, the drug sensitivity score (FM-MEL-3) was 1.5 and the drug sensitivity score (SK-MEL-2) was 1. The drug sensitivity score (WM852) was 3.2, the drug sensitivity score (FM-MEL-2) was 0 and the drug sensitivity score (FM-MEL-6) was 2.9. The drug sensitivity score (Bowes) was 10.4 and the drug sensitivity score (WM165) was 14.5.

For `O=C(c1cc(Cc2n[nH]c(=O)c3ccccc23)ccc1F)N1CCN(C(=O)C2CC2)CC1` [Olaparib], the drug sensitivity score (SK-MEL-28) was 1, the drug sensitivity score (FM-MEL-3) was 0 and the drug sensitivity score (SK-MEL-2) was 0. For the same compound, the drug sensitivity score (WM852) was 3.9, the drug sensitivity score (FM-MEL-2) was 0 and the drug sensitivity score (FM-MEL-6) was 0. For the same compound, the drug sensitivity score (Bowes) was 0.4 and the drug sensitivity score (WM165) was 7.5.

For `COc1ccc(CCc2nc3cc(-c4c(C)noc4C)ccc3n2C[C@H](C)N2CCOCC2)cc1Cl` [SGC-CBP30], the drug sensitivity score (SK-MEL-28) was 0.9, the drug sensitivity score (FM-MEL-3) was 7.4 and the drug sensitivity score (SK-MEL-2) was 0.1. For the same compound, the drug sensitivity score (WM852) was 0, the drug sensitivity score (FM-MEL-2) was 4.9 and the drug sensitivity score (FM-MEL-6) was 3. The drug sensitivity score (Bowes) was 3.6 and the drug sensitivity score (WM165) was 5.2.

`Cn1ncc(Cl)c1-c1cc(C(=O)N[C@H](CN)Cc2cccc(F)c2)sc1Cl` [Afuresertib] was tested, and the drug sensitivity score (SK-MEL-28) was 1, the drug sensitivity score (FM-MEL-3) was 1.9 and the drug sensitivity score (SK-MEL-2) was 0. For the same compound, the drug sensitivity score (WM852) was 0.5, the drug sensitivity score (FM-MEL-2) was 1.5 and the drug sensitivity score (FM-MEL-6) was 2.3. It also gave a drug sensitivity score (Bowes) of 0 and a drug sensitivity score (WM165) of 1.5.

— the supplement of paper PMC8633005
